In one series the test system is HT29 cells. Briefly: Combined anti-CD24 mAb and chemotherapy, methylene-blue viability assay. The series is classed as cell-based, human. As to conditions: simultaneous SWA11, 72 hours. The procedure: Experiments were performed in duplicates or repeated twice. The Y axes stand for cell viability quantified via methylene-blue assay.
The killing effect of the anti-CD24 antibodies and the chemotherapies was assessed, in-vitro, using a methylene-blue assay: 2.5×10^3 cells/well were plated onto 96-well in 0.2 ml complete medium. On the morrow the media were refreshed with the addition of the indicated reagents, held in incubation for 72 hours. The cells were washed with PBS and then fixed with a 0.2 mL 4% formaldehyde solution for 2 hours at room temperature. The cells were then washed with PBS, incubated with 0.15 mL ribonuclease A (3 μg/mL) for 30 minutes at room temperature, equilibrated with 0.2 mL sodium borate (0.1M, pH 8.5), and stained with 0.2 mL methylene blue (0.5%) for 10 minutes at room temperature. Finally, the cells were thoroughly washed with tap water and cell-bound dye was eluted with 0.2 mL HCl (0.1M). Color intensity was read in an enzyme-linked immunosorbent assay plate reader at 595 nm. SWA11 served as the anti-CD24 antibody.

A further series addresses T1, CD24 in HT29 cells (Homo sapiens, UniProt P25063).
T1 construct: endogenous in cells; host or cells: HT29 human colorectal cancer cells (ATCC)
T1 sequence (P25063 27-59 limits assumed): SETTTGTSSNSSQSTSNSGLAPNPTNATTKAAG
Briefly: Western blot of CD24 degradation in mAb-treated cells. As to conditions: up to 6 hours. The series is classed as cell-based. The protocol: FIGS. 5A and 5B are photos showing immunodetection on Western blot of CD24 degradation in anti-CD24 mAb treated cancer cells. HT29 (FIG. 5A) and Colo357 (FIG. 5B) cells were exposed to monoclonal anti-CD24 antibody SWA11 for the indicated periods of time, cells harvested and protein extracted. 20 μg of cell proteins from each sample were separated by SDS-PAGE, blotted onto membrane and reacted with anti-CD24 (SWA11 mAb, CD24) or polyclonal anti-actin (1-19, Santa Cruz Biotechnology, Santa Cruz Calif.). Visualization was effected by anti-mouse and anti-goat (respectively) second antibodies. Note the degradation of CD24 apparent already at 2 hours treatment in both cell lines, with no effect on actin levels;
FIG. 6 is a photo showing the lysosomal mediation of CD24 degradation in HT29 cancer cells treated with anti-CD24 mAb. […]
Exponentially growing cells were harvested and protein concentrations were determined using the Bio-Rad protein assay kit (Bio-Rad, Hercules, Calif.). […]
In order to assess whether CD24 proteolysis is involved in the inhibition of CD24-expressing cancer cell growth by anti-CD24 antibodies, protein levels of CD24 and housekeeping gene product actin in mAb-treated and control cells were analyzed by SDS-PAGE and Western blotting with specific antibodies.

Series [1] has as its target T2, human CD24 polypeptide (human) (UniProt P25063).
T2 sequence (looked up): T1 sequence (P25063 27-59 limits assumed)
In words: cell-based or functional assay.

The target in series [2] is T2, human CD24 polypeptide (human). Briefly: cell-based or functional assay. The source holds these as a separate data set.

Residues, ends and D or L forms follow the SMILES beside them. *: point of attachment. Cbz = O=C(OCc1ccccc1)* A value given as a limit tells only on which side of the number the result lay.

On to `O=c1[nH]cc(F)c(=O)[nH]1` [5-florouracil], for which, in the series on HT29 cells, the “cytotoxic effect of chemotherapeutic agent when combined with SWA11” value (from here on “cytotoxic effect”) is given as “enhanced the cytotoxic effect”. For the molecule `COc1cccc2c1C(=O)c1c(O)c3c(c(O)c1C2=O)C[C@@](O)(C(=O)CO)C[C@@H]3O[C@H]1C[C@H](N)[C@H](O)[C@H](C)O1` [Doxorubicin], in the series with HT29 cells, the “cytotoxic effect” value is “enhanced the cytotoxic effect”. As to `CC(C)C[C@@H](C=O)NC(=O)[C@H](CC(C)C)NC(=O)[C@H](CC(C)C)NC(=O)OCc1ccccc1` [MG132] (Cbz-Leu-Leu-Leu-aldehyde), the “effect on anti-CD24 mAb induced CD24 degradation” value on CD24 in HT29 cells (0.1 mM, proteasomal inhibitor, added prior to mAb) is “had no effect”. Turning to `O=C1[O][Pt]2([NH][C@@H]3CCCC[C@H]3[NH]2)[O]C1=O` [Oxaloplatin], the “cytotoxic effect” value in the series with HT29 cells is on record as “enhanced the cytotoxic effect”.

For `CC(=O)O[C@H]1C(=O)[C@@]2(C)[C@H]([C@H](OC(=O)c3ccccc3)[C@]3(O)C[C@H](OC(=O)[C@H](O)[C@@H](NC(=O)c4ccccc4)c4ccccc4)C(C)=C1C3(C)C)[C@]1(OC(C)=O)CO[C@@H]1C[C@@H]2O` [Paclitaxel], the “cytotoxic effect” value in the series on HT29 cells was “enhanced the cytotoxic effect”.

Turning to `CCN(CC)CCCC(C)Nc1ccnc2cc(Cl)ccc12` (centres unmarked) [chloroquine], the “effect on anti-CD24 mAb induced decrease in CD24 protein level” value on CD24 in HT29 cells (0.5 mM, lysosomal inhibitor, added 2 hours before mAb) is “prevented the decrease in CD24 protein level”. Molecule SWA11-ZZ-PE38 immunoconjugate showed a cytotoxity (LD50) in series [1] of 32 ng/mL.

B1: SWA11 anti-CD24 monoclonal antibody (antibody, human IgG1, kappa, V domains shown)
V domain 1: SDVHLQESGPDLVKPSQSLSLTCTVTGYSITSGYTWHWIRQFPGNTVEWMGYIQYTGSTRYNPALRGRLSISRDTSKNQFFLQLISVTTADTGTYFCARGTTASFDYWGQGTTLTVAS
V domain 2: DIVMSQSPSSLNVSVGEKVTMRCRSSQSLLYSSDQKNYLTWYQQKPGQSPKLLISWASTRASGVPDRFTGSGSGTDFTLTISSVKAEDLGVYYCQQYFIYPLTFGVGTKLGLKR
For B1, the growth inhibition (cell viability, methylene blue) in series [2] was less than 90%.

The values are drawn from patent US8614301B2, “Methods of treating cancer using anti CD24 antibodies” (priority 2007, dated 2013).
